{"source": "patent US20220331357A1", "about": "“COMPOSITIONS AND METHODS FOR THE PREVENTION AND TREATMENT OF PANCREATITIS” (Duke University, priority 2019, published 2022)", "key": {"[1]": {"system": "pressure-induced pancreatitis", "assay": "ERCP pressure-induced pancreatitis, nicotinic agonists", "type": "in vivo", "excerpt": "GTS-21 (DMXBA) is a derivative of the natural product anabaseine that acts as a partial agonist at neural nicotinic acetylcholine receptors. GTS-21 is 3-2,4-dimethoxybenzylidene anabaseine."}, "caerulein-treated mice": {"system": "caerulein-treated mice", "assay": "Caerulein-induced pancreatitis in mice", "type": "in vivo", "settings": "250 μg/g Na2HPO4 1 hour after first of 6 hourly caerulein injections (50 ng/g); vs normal saline", "excerpt": "Caerulein-induced pancreatitis in mice is an established model of acute experimental pancreatitis. Hyperstimulation of the pancreas by cholecystokinin or its analogue caerulein is a commonly used model of experimental acute pancreatitis in rodents. Caerulein produces mild to moderate, non-fatal pancreatitis that resolves spontaneously.\nAs shown in FIGS. 3A-3C, phosphate supplementation reduced all parameters of pancreatitis following caerulein administration including serum amylase levels (FIG. 3A), pancreatic MPO levels (FIG. 3B) and pancreatic histology (FIG. 3C). Specifically, mice (C56BL/6 adult mice) were treated with 6 hourly injections of caerulein sulfate (50 ng/g) by intraperitoneal injection. Sodium phosphate (250 μg/g Na2HPO4) and normal saline (NS) were given 1 hour after the first injection. The study was terminated 1 hour after the last caerulein injection at which time, blood and pancreas tissue are collected for measurements of serum amylase, and pancreatic edema, MPO, and histological pancreatitis severity. Pancreatic myeloperoxidase (MPO) and serum amylase levels were measured by commercially available assays. **P<0.01 vs. normal saline in caerulein-treated mice."}, "[2]": {"system": "isolated mouse pancreatic acini", "assay": "Caerulein-induced injury in isolated pancreatic acini", "type": "cell-based", "settings": "for caerulein-induced damage (release of trypsin, IL-1β and LDH): 1, 5 or 10 mM sodium phosphate, pH 7.4, caerulein 10 nM for 30 minutes", "excerpt": "To evaluate the effects of phosphate on acinar cell function pancreatic acini in vitro were examined High concentrations of caerulein in vitro induce pancreatic injury similar to the effects observed in vivo and this method has been used to study direct effects on pancreatic acinar cells. Specifically, caerulein causes pancreatitis by hyperstimulating the acinar cells through the CCK1 receptor. In isolated pancreatic acini, caerulein causes trypsin activation, generation of the proinflammatory cytokine cytosolic […], and cell necrosis as manifest by LDH release. Each of these pathological results is seen with caerulein hyperstimulation in vivo.\nIt was observed that phosphate supplementation, independent of its buffering effects, reduced caerulein-induced LDH release, a marker of cell damage (FIG. 4). In addition, it was sought to determine if lack of ATP contributes to pancreatitis and whether the protective effects of phosphate are through restoration of intracellular ATP levels. […] Isolated mouse pancreatic acini were treated with caerulein in buffer containing Na2HPO4 concentrations of 1-10 mM. Supernatant LDH was measured by commercial LDH assay. Cytosolic ATP levels were measured using a commercially available fluorometric assay. *P<0.05, **<0.01, ***<0.001.\nAll solutions were adjusted to pH 7.4. A supramaximal concentration of caerulein (10 nM) was added for 30 minutes as indicated after which media were analyzed for release of trypsin, IL-1β and LDH. (*P<0.05, **P<0.01, ***P<0.001).\nMitochondrial membrane potential was measured in isolated pancreatic acini using tetramethylrhodamine ethyl ester (TMRE) fluorescence.\nSpecifically, isolated pancreatic acini were loaded with the mitochondrial fluorescent dye TMRE and incubated in phosphate-free buffer with a supramaximal concentration of caerulein (10 nM). TMRE fluorescence and intracellular ATP levels were measure after 30 minutes. *P<0.05, ****P<0.0001.\nIsolated pancreatic acini loaded with TMRE were incubated in buffer with 0 or 5 mM phosphate (left panel). Effects of increasing phosphate concentrations on ATP production are shown in the right panel. *P<0.05, **P<0.01, ****P<0.0001. These findings illustrate the requirement for Pi in maintaining and restoring mitochondrial function and ATP synthesis under the stress of caerulein hyperstimulation."}, "[3]": {"system": "pancreatic acini from C57BL/6J mice", "type": "cell-based", "settings": "50 mM ethanol", "method": "In order to determine the effect of ethanol exposure and phosphate levels on acinar cell function, studies were conducted in vitro. Pancreata was harvested from ND-fed and LPD-fed C57BL/6J mice and isolated acinar cells using phosphate-free buffer solutions. Acinar cell function was assessed at various concentrations of ethanol (0-50 mM).\nNext, it was investigated as to whether phosphate supplementation could preserve pancreatic acinar cell function. Pancreatic acini from LPD-fed mice were isolated in phosphate-free buffer and treated with 50 mM ethanol and 0-5 mM Na2HPO4.\nTo further explore the mechanism underlying the effect of phosphate on ethanol-induced acinar cell dysfunction, cellular ATP content and mitochondrial function was investigated.\nIn order to determine if phosphate sensitizes mitochondria to the effects of alcohol, we measured TMRE fluorescence intensity, a measure of mitochondrial membrane potential that indicates normal mitochondrial function.\nPancreatic acini from LPD-fed mice were again isolated in phosphate-free buffer and treated with 50 mM ethanol and 0-5 mM Na2HPO4."}, "Piezol": {"target": "T1, Piezol (Mus musculus, UniProt E2JF22)", "T1 construct": "endogenous in cells; host or cells: isolated pancreatic acini / acinar cells (primary, mouse)", "T1 sequence (E2JF22 whole entry)": "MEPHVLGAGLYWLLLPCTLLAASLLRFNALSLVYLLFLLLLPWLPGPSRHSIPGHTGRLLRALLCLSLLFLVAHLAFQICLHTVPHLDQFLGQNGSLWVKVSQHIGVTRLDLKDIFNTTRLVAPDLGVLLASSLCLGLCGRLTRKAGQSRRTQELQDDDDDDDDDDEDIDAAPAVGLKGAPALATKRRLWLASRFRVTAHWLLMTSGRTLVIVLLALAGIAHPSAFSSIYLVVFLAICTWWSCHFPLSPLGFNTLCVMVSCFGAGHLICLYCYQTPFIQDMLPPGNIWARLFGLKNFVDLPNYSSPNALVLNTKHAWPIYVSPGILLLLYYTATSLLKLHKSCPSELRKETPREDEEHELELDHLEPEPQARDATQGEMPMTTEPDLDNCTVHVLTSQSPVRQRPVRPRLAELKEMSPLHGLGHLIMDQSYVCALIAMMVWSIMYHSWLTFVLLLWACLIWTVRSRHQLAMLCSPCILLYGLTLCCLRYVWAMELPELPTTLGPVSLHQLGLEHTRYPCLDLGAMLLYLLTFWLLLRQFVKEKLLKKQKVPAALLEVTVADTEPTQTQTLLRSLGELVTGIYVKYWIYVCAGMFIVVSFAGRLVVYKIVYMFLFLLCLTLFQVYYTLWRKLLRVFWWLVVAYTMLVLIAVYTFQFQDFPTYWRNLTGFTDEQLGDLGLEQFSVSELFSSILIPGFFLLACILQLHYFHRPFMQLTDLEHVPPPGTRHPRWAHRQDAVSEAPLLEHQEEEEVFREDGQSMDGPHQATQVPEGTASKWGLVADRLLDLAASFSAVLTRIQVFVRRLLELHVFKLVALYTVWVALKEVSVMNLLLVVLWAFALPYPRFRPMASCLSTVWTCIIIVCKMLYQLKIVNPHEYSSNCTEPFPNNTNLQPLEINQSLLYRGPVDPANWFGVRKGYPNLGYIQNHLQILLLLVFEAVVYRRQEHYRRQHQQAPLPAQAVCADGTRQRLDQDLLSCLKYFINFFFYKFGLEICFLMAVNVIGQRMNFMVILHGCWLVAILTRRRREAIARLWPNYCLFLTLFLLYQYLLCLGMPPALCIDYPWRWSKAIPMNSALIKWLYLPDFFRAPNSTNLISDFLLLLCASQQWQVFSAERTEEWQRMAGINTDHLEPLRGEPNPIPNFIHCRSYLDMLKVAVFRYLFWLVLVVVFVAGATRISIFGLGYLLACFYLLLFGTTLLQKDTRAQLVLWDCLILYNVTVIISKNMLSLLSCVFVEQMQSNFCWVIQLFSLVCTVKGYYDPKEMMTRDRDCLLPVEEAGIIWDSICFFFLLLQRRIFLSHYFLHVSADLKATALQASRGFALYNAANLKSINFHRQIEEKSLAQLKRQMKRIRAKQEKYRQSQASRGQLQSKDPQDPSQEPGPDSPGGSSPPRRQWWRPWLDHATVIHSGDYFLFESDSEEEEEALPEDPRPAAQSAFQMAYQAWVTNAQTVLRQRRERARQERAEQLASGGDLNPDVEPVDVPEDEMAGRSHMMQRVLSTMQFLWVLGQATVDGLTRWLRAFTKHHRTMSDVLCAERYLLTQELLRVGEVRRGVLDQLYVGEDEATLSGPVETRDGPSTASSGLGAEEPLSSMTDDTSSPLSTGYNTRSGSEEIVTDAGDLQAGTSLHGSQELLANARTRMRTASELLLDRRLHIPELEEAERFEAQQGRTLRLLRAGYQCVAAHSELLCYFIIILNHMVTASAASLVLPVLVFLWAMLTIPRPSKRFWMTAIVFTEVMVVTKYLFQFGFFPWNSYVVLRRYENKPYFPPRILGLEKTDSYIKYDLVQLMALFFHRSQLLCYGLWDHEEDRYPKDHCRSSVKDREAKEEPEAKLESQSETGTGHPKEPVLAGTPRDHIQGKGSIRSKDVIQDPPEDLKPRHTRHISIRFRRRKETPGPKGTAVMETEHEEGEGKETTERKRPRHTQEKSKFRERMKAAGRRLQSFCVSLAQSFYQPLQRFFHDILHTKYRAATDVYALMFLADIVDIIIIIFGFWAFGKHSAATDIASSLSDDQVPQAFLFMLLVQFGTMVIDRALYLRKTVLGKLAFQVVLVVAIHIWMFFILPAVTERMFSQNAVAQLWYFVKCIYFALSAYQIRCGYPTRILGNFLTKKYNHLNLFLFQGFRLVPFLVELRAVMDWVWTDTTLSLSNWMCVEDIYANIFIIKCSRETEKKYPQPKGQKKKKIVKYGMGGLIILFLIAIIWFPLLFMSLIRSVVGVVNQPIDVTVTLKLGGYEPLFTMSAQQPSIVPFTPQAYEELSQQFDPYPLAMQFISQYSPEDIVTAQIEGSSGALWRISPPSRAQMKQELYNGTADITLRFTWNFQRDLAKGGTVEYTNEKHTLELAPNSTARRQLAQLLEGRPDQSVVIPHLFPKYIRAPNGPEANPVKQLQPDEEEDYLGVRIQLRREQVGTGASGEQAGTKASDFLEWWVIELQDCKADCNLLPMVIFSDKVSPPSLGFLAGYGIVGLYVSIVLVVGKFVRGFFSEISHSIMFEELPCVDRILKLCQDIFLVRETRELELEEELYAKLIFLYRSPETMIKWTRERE", "assay": "Yoda1 activation of Piezol in pancreatic acinar cells", "type": "cell-based, mice", "method": "Pathological activation of Piezol leads to [Ca^2+]i overload, mitochondrial dysfunction, trypsinogen activation, and acinar cell necrosis. Moreover, Piezol activation explains how elevation of intrapancreatic duct pressure (e.g., ERCP or gallstone impaction) causes pancreatitis. Piezol can be activated by mechanical pushing or shear stress. A method for studying the effects of shear stress on isolated pancreatic acini in vitro was developed. Pancreatic acini are cultured on Matrigel and placed into a fluid flow chamber. Cells can be loaded with either the calcium sensitive dye, Calcium 6-QF (Molecular Devices), or the active trypsin enzyme substrate BZiPAR [rhodamine 110, bis(CBZ-L-isoleucyl-L-prolyl-L-arginine amide)] (10 μM) and imaged using a fluorescence microscope while fluid flow is regulated to control the level of shear stress.\nAs shown in FIG. 11(A)-(C), subjecting acinar cells to fluid shear stress at 12 dyne/cm^2 produced a prolonged increase in [Ca^2+]i similar to that seen with supramaximal, pathological concentrations of caerulein and was sufficient to cause trypsin activation. Shear pressure also led to mitochondrial membrane depolarization indicating mitochondrial dysfunction. These effects are specific for Piezol since changes were not observed in Piezol1^aci knockout mice. Yoda1 is a selective agonist for Piezol and can be used to simulate pressure by chemically activating Piezol. […] In order to determine if phosphate might protect against pressure-induced pancreatitis, we observed that phosphate supplementation reduced Yoda1-stimulated elevations in [Ca^2+]i and LDH release."}, "[4]": {"system": "ERCP pancreatitis in mice", "assay": "ERCP pancreatitis mouse model (retrograde pancreatic duct infusion)", "type": "in vivo", "settings": "mice on low phosphate diet; 200 μg/g intraperitoneal 1 and 4 hours after induction; 24 hours", "source_text": "For this study, a mouse model of this form of pancreatitis was employed."}, "[5]": {"system": "ethanol-induced pancreatitis in mice", "excerpt": "These findings raise the question of whether phosphate deficiency contributes to the progression of pancreatitis. This may be particularly relevant to alcohol-induced pancreatitis, given that alcoholic patients are susceptible to hypophosphatemia due to nutritional deficiencies and the effects of alcohol ingestion on phosphate absorption. Therefore, it was hypothesized that low phosphate levels may be predispose to alcohol-induced pancreatic injury. To test this hypothesis, we placed mice on a low phosphate diet and determined their susceptibility to ethanol. Animals were placed on a chow diet containing low amounts of phosphate (Pi) for three weeks. The low phosphate diet (Envigo #TD.140659) was comprised of 0.02% Pi compared to normal chow diet which contained 1% Pi. Serum levels of phosphate declined in mice on a low phosphate diet from normal values of 2.2 mM to 1.4 mM (FIG. 12). In order to determine if the diet rendered mice more sensitive to ethanol, mice were administered ethanol by orogastric gavage at […] (30% ethanol at 10 mL/kg) daily for five days (Control mice were gavaged with water). Mice were euthanized 12 hours after the last dose of ethanol. The pancreatitis severity scoring system is a composite of edema, necrosis, inflammatory cell infiltration and hemorrhage severity as previously published. […]"}, "[6]": {"settings": "LPD-derived acini, phosphate-free buffer"}, "[7]": {"settings": "ERCP pressure-induced pancreatic inflammation"}, "[8]": {"settings": "caerulein 10 nM, phosphate-free buffer, 30 minutes"}}, "note": "Read-outs that look alike come from different tables or passages of the source."}
{"compound": "COc1ccc(/C=C2\\CCCN=C2c2cccnc2)c(OC)c1", "note": "[GTS-21, 3-2,4-dimethoxybenzylidene anabaseine]", "values": [{"measurement": "protection of the pancreas against pressure-induced pancreatitis", "setting": "[1]; prior splenectomy", "result": "abolished"}, {"measurement": "protection against pressure-induced acute pancreatitis", "setting": "[1]; splenocytes depleted of T cells", "result": "do not protect"}, {"measurement": "protection of the pancreas against pressure-induced pancreatitis", "setting": "[1]; systemic administration", "result": "significantly protected"}]}
{"compound": "O=P([O-])([O-])O.[Na+].[Na+]", "note": "[Na2HPO4]", "values": [{"measurement": "pancreatic MPO levels", "setting": "caerulein-treated mice", "result": "reduced"}, {"measurement": "pancreatic histology", "setting": "caerulein-treated mice", "result": "reduced"}, {"measurement": "serum amylase levels", "setting": "caerulein-treated mice", "result": "reduced"}, {"measurement": "caerulein-induced LDH release", "setting": "[2]; buffer containing Na2HPO4 1-10 mM", "result": "reduced"}, {"measurement": "cytosolic ATP levels", "setting": "[2]; caerulein-treated acini, Na2HPO4 1-10 mM", "result": "restored ATP levels in a dose-dependent fashion"}, {"measurement": "ATP levels", "setting": "[3]; LPD acini, 0-5 mM Na2HPO4", "result": "significantly increased"}, {"measurement": "TMRE fluorescence intensity", "setting": "[3]; LPD acini, 0-5 mM Na2HPO4", "result": "markedly improved"}, {"measurement": "LDH", "setting": "[3]; LPD acini, 5 mM Na2HPO4", "result": "significantly decreased"}, {"measurement": "trypsin activity", "setting": "[3]; LPD acini, 5 mM Na2HPO4", "result": "significantly decreased"}]}
{"compound": "O=P([O-])(O)O.[Na+]", "note": "[NaH2PO4]", "values": [{"measurement": "caerulein-induced damage (release of trypsin, IL-1β and LDH)", "setting": "[2]", "result": "protects"}, {"measurement": "mitochondrial function (TMRE fluorescence)", "setting": "[2]; caerulein hyperstimulation, 0 or 5 mM phosphate", "result": "dose-dependently restored"}, {"measurement": "ATP synthesis", "setting": "[2]; caerulein hyperstimulation, increasing phosphate concentrations", "result": "dose-dependently restored"}]}
{"compound": "Clc1cccc(Cl)c1CSc1nnc(-c2cnccn2)s1", "note": "[Yoda1]", "values": [{"measurement": "LDH release", "setting": "Piezol; Yoda1 25 μM", "result": "increased"}, {"measurement": "[Ca2+]i", "setting": "Piezol; Yoda1 25 μM", "result": "caused an elevation"}]}
{"compound": "CCO", "note": "[ethanol]", "values": [{"measurement": "TMRE fluorescence intensity", "setting": "[3]; LPD acini", "result": "significantly decreased"}, {"measurement": "total cellular ATP levels", "setting": "[3]; LPD-derived acini", "result": "significantly decreased"}, {"measurement": "Lactate dehydrogenase (LDH)", "setting": "[3]; [6]", "result": "significantly increased"}, {"measurement": "trypsin activity", "setting": "[3]; [6]", "result": "significantly increased"}, {"measurement": "total cellular ATP levels", "setting": "[3]; ND-derived acini", "result": "not observed"}, {"measurement": "LDH and trypsin activity", "setting": "[3]; acini from mice on normal diet (ND)", "result": "not seen"}]}
{"compound": "CN1CCCC1c1cccnc1", "note": "(centres unmarked) [nicotine]", "values": [{"measurement": "histopathology", "setting": "[1]; [7]", "result": "dose-dependently inhibits"}, {"measurement": "pancreatic MPO levels", "setting": "[1]; [7]", "result": "dose-dependently inhibits"}, {"measurement": "pancreatic edema", "setting": "[1]; [7]", "result": "dose-dependently inhibits"}, {"measurement": "serum amylase", "setting": "[1]; [7]", "result": "dose-dependently inhibits"}]}
{"compound": "O=P(O)(O)O", "note": "[sodium phosphate]", "values": [{"measurement": "pancreatic injury (survival, pancreatic edema)", "setting": "[4]", "result": "protected"}, {"measurement": "mortality of ethanol-treated mice on the low phosphate diet", "setting": "[5]; sodium phosphate 50 mg/kg orogastric gavage daily for 5 days, ethanol 3 mg/kg daily for 5 days", "result": "significantly reduced"}]}
{"compound": "caerulein", "values": [{"measurement": "ATP production", "setting": "[2]; [8]", "result": "reduced ATP production"}, {"measurement": "mitochondrial membrane potential (TMRE fluorescence)", "setting": "[2]; [8]", "result": "caused mitochondrial depolarization"}]}
{"compound": "phosphate", "values": [{"measurement": "caerulein-induced damage (release of trypsin, IL-1β and LDH)", "setting": "[2]", "result": "improved"}, {"measurement": "Yoda1-stimulated LDH release", "setting": "Piezol; phosphate supplementation", "result": "reduced"}, {"measurement": "Yoda1-stimulated elevations in [Ca2+]i", "setting": "Piezol; phosphate supplementation", "result": "reduced"}, {"measurement": "ethanol-induced injury", "setting": "[5]; mice on low phosphate diet, sodium phosphate 50 mg/kg gavage daily for 5 days", "result": "protects"}]}
